Values quoted from earlier work as cited in publication PMC5377275 (ACS Omega, 2017).

Tested on: cytosolic lysates

Question: For `O=C1c2ccccc2-c2nc3nonc3nc21` [SMER3], which “Effect of inhibitor on ubiquitination of KGSYGK(FAM)RRR” value is on record?
Answer: Its value is “impaired”.

Question: Which “Ubiquitination of primary degron in HeLa cell lysates” value (lysine residue positioned at the C-terminus) does the source give for RRRG here?
Answer: Its value is “rapidly ubiquitinated”.

Question: Which “Ubiquitination of p53/MDM2-based peptide in cytosolic lysates” value does the source give for KGSYGK(FAM)RRR here?
Answer: The value was “readily ubiquitinated”.

Question: For `O=C(O)COc1ccc(Br)cc1/C=C1\SC(=S)N(Cc2cccnc2)C1=O` [SKPin C1], which “Effect of inhibitor on ubiquitination of KGSYGK(FAM)RRR” value is on record?
Answer: Its value is “impaired”.
